# How the values were obtained:
# [1] = Example 5: concentrations of vanoxerine and its metabolites in patients after a 300 mg dose of vanoxerine; type: in vivo, human; conditions: low concentration group, 300 mg vanoxerine
# Method: Each patient gave samples before administration of their dose, and then again at nine further time points, 30 minutes after administration, 1, 2, 3, 4, 6, 8, 12, and 24 hours post administration.
# [2] = Example 4: plasma concentrations of vanoxerine in patients after an oral vanoxerine HCL tablet; type: in vivo, human; conditions: outlier patient, CYP2D6 slow metabolizer
# Description: The results identified high levels of variability between patients and a single outlier, who was particularly profiled to determine the possible cause of the high plasma concentration levels.
# Accordingly, the individual patient could have received administration of ½ to ¼ the dose of other patients for the same effective plasma concentration as the majority of the patients in the study.
# [3] = healthy subjects, higher doses of vanoxerine; cited from earlier work
# [4] = Preliminary studies of daily use of vanoxerine over 7, 10 and 14 days; type: in vivo; conditions: daily use over 7, 10, and 14 days, 75, 100, 125, and 150 mg a day
# Description: However, control and prevention of events of cardiac arrhythmia are important to these patients to prevent future recurrences and the deleterious effects and morbidity.
smiles,measurement,setting,value
"Fc1ccc(C(OCCN2CCN(CCCc3ccccc3)CC2)c2ccc(F)cc2)cc1 [Vanoxerine, 1-[2-[bis(4-fluorophenyl)methoxy]ethyl]-4-(3-phenylpropyl)piperazine]","plasma levels, highest at any time point",[1],~40 ng/mL
same,plasma concentration,[2],unusually high plasma concentration
same,effects seen at higher doses,[3],"concentration difficulties, increase systolic blood pressure, asthenia, and a feeling of drug influence"
same,effects of daily use,[4],increased heart rate and systolic blood pressure

# — patent US20160303114A1 (Laguna Pharmaceuticals, Inc., priority 2013, published 2016)
